Source: patent US20040063662A1, “Selenophene anti-tumor agents” (priority 1996, published 2004)

Experiments:
K-562 = test: NCI human tumor cell panel: K-562 (Leukemia); format: cell-based
SR = test: NCI human tumor cell panel: SR (Leukemia); format: cell-based
NCI-H226 = test: NCI human tumor cell panel: NCI-H226 (Non-Small Cell Lung Cancer); format: cell-based; conditions: NCI-H226, read-out: Log10 GI50 (converted)
NCI-H322M = test: cells; format: cell-based; conditions: Homo sapiens
NCI-H460 = test: NCI human tumor cell panel: NCI-H460 (Non-Small Cell Lung Cancer); format: cell-based
COLO 205 = test: NCI human tumor cell panel: COLO 205 (Colon Cancer); format: cell-based
HCC-2998 = test: NCI human tumor cell panel: HCC-2998 (Colon Cancer); format: cell-based
KM12 = test: NCI human tumor cell panel: KM12 (Colon Cancer); format: cell-based; conditions: KM12, read-out: Log10 TGI (converted)
SNB-75 = test: NCI human tumor cell panel: SNB-75 (CNS Cancer); format: cell-based
M14 = test: NCI human tumor cell panel: M14 (Melanoma); format: cell-based
SK-MEL-2 = test: NCI human tumor cell panel: SK-MEL-2 (Melanoma); format: cell-based
SK-MEL-28 = test: NCI human tumor cell panel: SK-MEL-28 (Melanoma); format: cell-based
SK-MEL-5 = test: NCI human tumor cell panel: SK-MEL-5 (Melanoma); format: cell-based
UACC-257 = test: NCI human tumor cell panel: UACC-257 (Melanoma); format: cell-based
IGROV1 = test: NCI human tumor cell panel: IGROV1 (Ovarian Cancer); format: cell-based
OVCAR-5 = test: NCI human tumor cell panel: OVCAR-5 (Ovarian Cancer); format: cell-based
SK-OV-3 = test: NCI human tumor cell panel: SK-OV-3 (Ovarian Cancer); format: cell-based
A498 = test: NCI human tumor cell panel: A498 (Renal Cancer); format: cell-based
CAKI-1 = test: NCI human tumor cell panel: CAKI-1 (Renal Cancer); format: cell-based
TK-10 = test: NCI human tumor cell panel: TK-10 (Renal Cancer); format: cell-based
MCF7 = test: NCI human tumor cell panel: MCF7 (Breast Cancer); format: cell-based
MCF7/ADR-RES = test: NCI human tumor cell panel: MCF7/ADR-RES (Breast Cancer); format: cell-based
MDA-MB-231/ATCC = test: NCI human tumor cell panel: MDA-MB-231/ATCC (Breast Cancer); format: cell-based; conditions: Homo sapiens, MDA-MB-231, MDA-MB-231/ATCC
MDA-MB-435 = test: NCI human tumor cell panel: MDA-MB-435 (Breast Cancer); format: cell-based
T-47D = test: NCI human tumor cell panel: T-47D (Breast Cancer); format: cell-based; conditions: T47D
[1] = tested on: panel of sixty different human tumor cell lines; test: NCI human tumor cell panel: whole panel (mean graph summary)
[2] = read-out: Log10 GI50 (converted)
[3] = read-out: Log10 TGI (converted)

Work on `O=Cc1ccc(-c2ccc(-c3ccc(C=O)[se]3)s2)s1` [compound 688829] yielded a GI50 (K-562; K562, K-562, read-out: Log10 GI50 (converted)) of 0.251 µM, an IC (TGI) (K-562; K562, K-562, read-out: Log10 TGI (converted)) greater than 100 µM and a GI50 (SR; [2]) of 24.5 µM. It also gave an IC (TGI) (SR; [3]) of 72.4 µM, a GI50 (NCI-H226) of 0.891 µM and a GI50 (NCI-H322M; [2]) of 27.5 µM. The IC (TGI) (NCI-H322M; [3]) was 89.1 µM, the GI50 (NCI-H460; NCI-H460, read-out: Log10 GI50 (converted)) was 0.141 µM and the IC (TGI) (NCI-H460; NCI-H460, read-out: Log10 TGI (converted)) was greater than 100 µM. For the same compound, the GI50 (COLO 205; COLO 205, read-out: Log10 GI50 (converted)) was 12 µM, the IC (TGI) (COLO 205; COLO 205, read-out: Log10 TGI (converted)) was 33.1 µM and the GI50 (HCC-2998; HCC-2998, read-out: Log10 GI50 (converted)) was 0.389 µM. The IC (TGI) (HCC-2998; HCC-2998, read-out: Log10 TGI (converted)) was greater than 100 µM, the IC (TGI) (KM12) was greater than 100 µM and the GI50 (SNB-75; SNB-75, read-out: Log10 GI50 (converted)) was 75.9 µM. For the same compound, the IC (TGI) (SNB-75; SNB-75, read-out: Log10 TGI (converted)) was greater than 100 µM, the GI50 (M14; M14, read-out: Log10 GI50 (converted)) was 20 µM and the IC (TGI) (M14; M14, read-out: Log10 TGI (converted)) was greater than 100 µM. For the same compound, the GI50 (SK-MEL-2; SK-MEL-2, read-out: Log10 GI50 (converted)) was 33.9 µM, the IC (TGI) (SK-MEL-2; SK-MEL-2, read-out: Log10 TGI (converted)) was greater than 100 µM and the GI50 (SK-MEL-28; SK-MEL-28, read-out: Log10 GI50 (converted)) was 66.1 µM. For the same compound, the IC (TGI) (SK-MEL-28; SK-MEL-28, read-out: Log10 TGI (converted)) was greater than 100 µM, the GI50 (SK-MEL-5; SK-MEL-5, read-out: Log10 GI50 (converted)) was 23.4 µM and the IC (TGI) (SK-MEL-5; SK-MEL-5, read-out: Log10 TGI (converted)) was greater than 100 µM. For the same compound, the GI50 (UACC-257; UACC-257, read-out: Log10 GI50 (converted)) was 0.195 µM, the IC (TGI) (UACC-257; UACC-257, read-out: Log10 TGI (converted)) was 0.513 µM and the GI50 (IGROV1; IGROV-1, IGROV1, read-out: Log10 GI50 (converted)) was 0.178 µM. The IC (TGI) (IGROV1; IGROV-1, IGROV1, read-out: Log10 TGI (converted)) was 2.45 µM, the GI50 (OVCAR-5; OVCAR-5, read-out: Log10 GI50 (converted)) was 0.123 µM and the IC (TGI) (OVCAR-5; OVCAR-5, read-out: Log10 TGI (converted)) was 0.501 µM. The GI50 (SK-OV-3; SK-OV-3, read-out: Log10 GI50 (converted)) was 26.3 µM, the IC (TGI) (SK-OV-3; SK-OV-3, read-out: Log10 TGI (converted)) was greater than 100 µM and the GI50 (A498; A498, read-out: Log10 GI50 (converted)) was 0.0214 µM. For the same compound, the IC (TGI) (A498; A498, read-out: Log10 TGI (converted)) was 0.0794 µM, the GI50 (CAKI-1; CAKI-1, read-out: Log10 GI50 (converted)) was 0.191 µM and the IC (TGI) (CAKI-1; CAKI-1, read-out: Log10 TGI (converted)) was 0.501 µM. It also gave a GI50 (TK-10; TK-10, read-out: Log10 GI50 (converted)) of 0.0282 µM, an IC (TGI) (TK-10; TK-10, read-out: Log10 TGI (converted)) of 0.209 µM and a GI50 (MCF7; MCF7, read-out: Log10 GI50 (converted)) of 0.191 µM. The IC (TGI) (MCF7; MCF7, read-out: Log10 TGI (converted)) was greater than 100 µM, the GI50 (MCF7/ADR-RES; [2]) was 30.2 µM and the IC (TGI) (MCF7/ADR-RES; [3]) was greater than 100 µM. The GI50 (MDA-MB-231/ATCC; [2]) was 23.4 µM, the IC (TGI) (MDA-MB-231/ATCC; [3]) was 67.6 µM and the GI50 (MDA-MB-435; MDA-MB-435, read-out: Log10 GI50 (converted)) was 33.1 µM. For the same compound, the IC (TGI) (MDA-MB-435; MDA-MB-435, read-out: Log10 TGI (converted)) was greater than 100 µM, the GI50 (T-47D; [2]) was 0.339 µM and the IC (TGI) (T-47D; [3]) was greater than 100 µM. The GI50 ([1]; Homo sapiens, read-out: Log10 GI50, MG_MID, mean over the panel (converted)) was 5.37 µM, the CC50 ([1]; Homo sapiens, read-out: Log10 LC50, MG_MID, mean over the panel (converted)) was 87.1 µM and the “Log10 TGI, MG_MID” value ([1]; mean over the panel) was −4.35. The “Log10 TGI, Delta” value ([1]; whole panel) was 2.75 and the “Log10 TGI, Range” value ([1]; whole panel) was 3.10.
